Legend:
[1] = Photochromic characteristics of 2 mm molded thermosetting resin piece containing the spiroxazine; type: physicochemical
Protocol: The compound synthesized in Example 1, which was represented by the following formula: [drawing 286] was dissolved and dispersed in polymethyl methacrylate with the aid of benzene, and a cast film was prepared on a slide glass sheet (11.2 cm×3.7 cm) so that the concentration of the compound in the film was 1.0×10^-4 mol/g and the thickness of the film was 0.1 mm. The photochromic film was irradiated with rays of a mercury lamp (SHL-100 supplied by Toshiba) located 10 cm apart from the film at 35° C.+1° C. for 60 seconds to effect coloration in the film, and the photochromic characteristics were examined with respect to items described below.
Maximum absorption wavelength (λmax):
The maximum absorption wavelength λmax of the colored film was determined by using a spectrophotometer (220 A supplied by Hitachi).
After 60 seconds' irradiation under the above-mentioned conditions, the absorbance at the maximum absorption wavelength was measured.
The absorbance at the maximum absorption wavelength of the unirradiated film was measured. Half-value period t^1/2 :
After 60 seconds' irradiation, the time required for reduction of the absorbance of the film to 1/2 of [ε(60 seconds)-ε(0 second)] was measured.
0.4 parts by weight of the spiroxazine synthesized in Example 1 was added to a composition of 70 parts by weight of chlorostyrene with 30 parts by weight of 2,2-bis(3,5-dibromo-4-methacryloyloxyethoxyphenyl) propane. One part by weight of perbutyl ND was added to the composition as an initiator of radical polymerization and was sufficiently mixed. The mixture liquid was casted into a mold comprising a glass plate and a gasket made of an ethylene-vinyl acetate copolymer and was polymerized in the mold. The mold was placed in an air oven. Polymerization was carried out by gradually elevating the temperature of the air oven from 30° C. to 90° C. for 18 hours and keeping it at 90° C. over a period of 2 hours. After the termination of the polymerization, the mold was removed from the air oven. After the mold was allowed to cool, the polymer molded piece was removed from the glass of the mold.
The photochromic characteristics of the obtained molded piece having a thickness of 2 mm was measured in the same method as Example 65.
Excepting that the kinds and amounts of the monomers and the spiroxazine used in Example 129 were changed and polymerization was carried out by a known means depending on the monomers, Examples 130 to 144 are identical with Example 129.

[2] = Photochromic characteristics of cast polymethyl methacrylate film (coloration under mercury lamp, fading); type: physicochemical; conditions: PMMA film, 1.0×10^-4 mol/g, 0.1 mm, 35° C.; for t1/2 (half-value period of absorbance after irradiation): after 60 seconds' irradiation; for λ max (maximum absorption wavelength of the colored film) / ε (60 seconds)-ε (0 second): mercury lamp 60 seconds; for ε (60 seconds)-ε (0 second): absorbance at λmax
[3] = Example 129: BMDBP/c1-st (30/70), compound 0.4 parts, 2 mm
[4] = Example 130: ADC (100), compound 0.001 parts
[5] = Example 131: TMP-TAC(100), compound 0.4 parts
[6] = Example 132: BADBP/DAP (60/40), compound 0.4 parts
[7] = Example 133: BMDBP/st (50/50), compound 10 parts
[8] = Example 134: DCIPF/st (70/30), compound 70 parts
[9] = Example 135: EGDMA/st (50/50), compound 30 parts
[10] = Example 136: monomer composition drawn as drawing 288, compound 1.0 parts
[11] = Example 137: monomer composition drawn as drawing 289, compound 0.6 parts
[12] = Example 138: DVB/PETTP(60/40), compound 0.03 parts
[13] = Example 139: XIC/DME (58/42), compound 0.2 parts
[14] = Example 140: XIC/HPA/DVB (10/50/40), compound 0.4 parts
[15] = Example 141: MMA/DEGDMA (70/30), compound 0.1 parts
[16] = Example 142: BADBPO/TBBM/DAP (50/30/20), compound 0.1 parts
[17] = Example 143: HEMA/XIC/BMA (30/20/50), compound 0.1 parts
[18] = Example 144: DEGDMA/BMA (40/60), compound 0.1 parts

SMILES: CN1c2ccccc2C2(CCCCC2)C12C=Nc1ccc3ccccc3c1O2 (centres unmarked) [Compound 1]
- t1/2 [1, 3]: 20 s
- ε(60 sec)-ε(0 sec) [1, 3]: 1.6
- λmax [1, 3]: 604 nm
- t1/2 [1, 4]: 24 s
- ε(60 sec)-ε(0 sec) [1, 4]: 0.9
- λmax [1, 4]: 607 nm
- t1/2 [1, 5]: 28 s
- ε(60 sec)-ε(0 sec) [1, 5]: 1.5
- λmax [1, 5]: 607 nm
- t1/2 [1, 6]: 21 s
- ε(60 sec)-ε(0 sec) [1, 6]: 1.5
- λmax [1, 6]: 606 nm
- t1/2 [1, 7]: 20 s
- ε(60 sec)-ε(0 sec) [1, 7]: 1.7
- λmax [1, 7]: 604 nm
- t1/2 [1, 8]: 18 s
- ε(60 sec)-ε(0 sec) [1, 8]: 1.8
- λmax [1, 8]: 604 nm
- t1/2 [1, 9]: 19 s
- ε(60 sec)-ε(0 sec) [1, 9]: 1.7
- λmax [1, 9]: 604 nm
- t1/2 [1, 10]: 20 s
- ε(60 sec)-ε(0 sec) [1, 10]: 1.6
- λmax [1, 10]: 601 nm
- t1/2 [1, 11]: 22 s
- ε(60 sec)-ε(0 sec) [1, 11]: 1.6
- λmax [1, 11]: 601 nm
- t1/2 [1, 12]: 22 s
- ε(60 sec)-ε(0 sec) [1, 12]: 1.5
- λmax [1, 12]: 606 nm
- t1/2 [1, 13]: 19 s
- ε(60 sec)-ε(0 sec) [1, 13]: 1.5
- λmax [1, 13]: 604 nm
- t1/2 [1, 14]: 19 s
- ε(60 sec)-ε(0 sec) [1, 14]: 1.6
- λmax [1, 14]: 604 nm
- t1/2 [1, 15]: 18 s
- ε(60 sec)-ε(0 sec) [1, 15]: 1.6
- λmax [1, 15]: 601 nm
- t1/2 [1, 16]: 23 s
- ε(60 sec)-ε(0 sec) [1, 16]: 1.6
- λmax [1, 16]: 606 nm
- t1/2 [1, 17]: 22 s
- ε(60 sec)-ε(0 sec) [1, 17]: 1.6
- λmax [1, 17]: 601 nm
- t1/2 [1, 18]: 19 s
- ε(60 sec)-ε(0 sec) [1, 18]: 1.6
- λmax [1, 18]: 601 nm
- t1/2 (half-value period of absorbance after irradiation) [2]: 18 s
- λ max (maximum absorption wavelength of the colored film) [2]: 601
- ε (60 seconds)-ε (0 second) [2]: 1.4

SMILES: COC(=O)CN1c2cc(Cl)ccc2C2(C3CC4CC(C3)CC2C4)C12C=Nc1ccc3cc4ccc(Br)cc4cc3c1O2 (centres unmarked) [Compound 24]
- t1/2 (half-value period of absorbance after irradiation) [2]: 18 s
- λ max (maximum absorption wavelength of the colored film) [2]: 609
- ε (60 seconds)-ε (0 second) [2]: 1.2

SMILES: CN1c2ccccc2C2(CCCCC2)C12C=Nc1cc(Cc3ccccc3)c3ccccc3c1O2 (centres unmarked) [Compound 25]
- t1/2 (half-value period of absorbance after irradiation) [2]: 18 s
- λ max (maximum absorption wavelength of the colored film) [2]: 611
- ε (60 seconds)-ε (0 second) [2]: 1.4

SMILES: CN1c2ccccc2C2(CCCCC2)C12C=Nc1ccc3cnccc3c1O2 (centres unmarked) [Compound 26]
- t1/2 (half-value period of absorbance after irradiation) [2]: 17 s
- λ max (maximum absorption wavelength of the colored film) [2]: 619
- ε (60 seconds)-ε (0 second) [2]: 1.8

SMILES: CN1c2c(F)cc(F)cc2C2(CCCCC2)C12C=Nc1ccc3cnccc3c1O2 (centres unmarked) [Compound 27]
- t1/2 (half-value period of absorbance after irradiation) [2]: 15 s
- λ max (maximum absorption wavelength of the colored film) [2]: 613
- ε (60 seconds)-ε (0 second) [2]: 1.7

SMILES: Cc1cc2ccncc2c2c1N=CC1(O2)N(C(C)C)c2ccc(Cl)cc2C12CCCC2 (centres unmarked) [Compound 28]
- t1/2 (half-value period of absorbance after irradiation) [2]: 14 s
- λ max (maximum absorption wavelength of the colored film) [2]: 595
- ε (60 seconds)-ε (0 second) [2]: 1.7

SMILES: Cc1cc2c(c3ccnc(C)c13)OC1(C=N2)N(C(C)C)c2cc(Br)ccc2C12CCCCCC2 (centres unmarked) [Compound 29]
- t1/2 (half-value period of absorbance after irradiation) [2]: 16 s
- λ max (maximum absorption wavelength of the colored film) [2]: 602
- ε (60 seconds)-ε (0 second) [2]: 1.6

SMILES: CCC1(CC)c2cc(C(F)(F)F)ccc2N(Cc2ccccc2)C12C=Nc1cc(Cc3ccccc3)c3c(C)cncc3c1O2 (centres unmarked) [Compound 30]
- t1/2 (half-value period of absorbance after irradiation) [2]: 18 s
- λ max (maximum absorption wavelength of the colored film) [2]: 589
- ε (60 seconds)-ε (0 second) [2]: 1.6

SMILES: CCC1(C)c2cc(OC)ccc2N(Cc2ccccc2)C12C=Nc1cc(-c3ccccc3)c3c(OC)nccc3c1O2 (centres unmarked) [Compound 31]
- t1/2 (half-value period of absorbance after irradiation) [2]: 17 s
- λ max (maximum absorption wavelength of the colored film) [2]: 619
- ε (60 seconds)-ε (0 second) [2]: 1.7

SMILES: CCC1(CC)c2ccc(N(C)C)cc2N(CCc2ccccc2)C12C=Nc1c(Cl)cc3cc(OC)ncc3c1O2 (centres unmarked) [Compound 32]
- t1/2 (half-value period of absorbance after irradiation) [2]: 19 s
- λ max (maximum absorption wavelength of the colored film) [2]: 590
- ε (60 seconds)-ε (0 second) [2]: 1.7

SMILES: CN(C)c1cc2c(c3cc4cc[nH]c4cc13)OC1(C=N2)N(C)c2ncc(Cc3ccccc3)cc2C1(C)C (centres unmarked) [Compound 47]
- t1/2 (half-value period of absorbance after irradiation) [2]: 17 s
- λ max (maximum absorption wavelength of the colored film) [2]: 601
- ε (60 seconds)-ε (0 second) [2]: 1.4

SMILES: CN1c2occ(C#N)c2C(C)(C)C12C=Nc1cc(Cc3ccccc3)c3ncc(Br)cc3c1O2 (centres unmarked) [Compound 48]
- t1/2 (half-value period of absorbance after irradiation) [2]: 18 s
- λ max (maximum absorption wavelength of the colored film) [2]: 610
- ε (60 seconds)-ε (0 second) [2]: 1.4

SMILES: CN1c2cc(N3CCCC3)ccc2C(C)(C)C12C=Nc1c(C(F)(F)F)cc3ncccc3c1O2 (centres unmarked) [Compound 49]
- t1/2 (half-value period of absorbance after irradiation) [2]: 19 s
- λ max (maximum absorption wavelength of the colored film) [2]: 600
- ε (60 seconds)-ε (0 second) [2]: 1.5

SMILES: CC1(C)c2cc3cc(-c4ccsc4)oc3cc2N(CCC#N)C12C=Nc1c(N)cc3ncccc3c1O2 (centres unmarked) [Compound 50]
- λ max (maximum absorption wavelength of the colored film) [2]: 605
- ε (60 seconds)-ε (0 second) [2]: 1.5

SMILES: COC(=O)c1cc2ncccc2c2c1N=CC1(O2)N(C)c2c(cc(C(F)(F)F)c(C(F)(F)F)c2C(F)(F)F)C1(C)C (centres unmarked) [Compound 51]
- t1/2 (half-value period of absorbance after irradiation) [2]: 18 s
- λ max (maximum absorption wavelength of the colored film) [2]: 609
- ε (60 seconds)-ε (0 second) [2]: 1.4

SMILES: COC(=O)c1ccc2c(c1)C(C)(C)C1(C=Nc3ccc4ncccc4c3O1)N2C (centres unmarked) [Compound 52]
- t1/2 (half-value period of absorbance after irradiation) [2]: 18 s
- λ max (maximum absorption wavelength of the colored film) [2]: 611
- ε (60 seconds)-ε (0 second) [2]: 1.5

SMILES: CN1c2ccccc2C(C)(C)C12C=Nc1ccc3cnccc3c1O2 (centres unmarked) [Compound 53]
- t1/2 (half-value period of absorbance after irradiation) [2]: 16 s
- λ max (maximum absorption wavelength of the colored film) [2]: 615
- ε (60 seconds)-ε (0 second) [2]: 1.7

SMILES: CN1c2c(F)cc(F)cc2C(C)(C)C12C=Nc1ccc3cnccc3c1O2 (centres unmarked) [Compound 54]
- t1/2 (half-value period of absorbance after irradiation) [2]: 14 s
- λ max (maximum absorption wavelength of the colored film) [2]: 609
- ε (60 seconds)-ε (0 second) [2]: 1.5

SMILES: Cc1cc2ccncc2c2c1N=CC1(O2)N(C(C)C)c2ccc(Cl)cc2C1(C)C (centres unmarked) [Compound 55]
- t1/2 (half-value period of absorbance after irradiation) [2]: 13 s
- λ max (maximum absorption wavelength of the colored film) [2]: 590
- ε (60 seconds)-ε (0 second) [2]: 1.6
